Assays:
[1] = tested on: prostate cancer PC3 cell line; assay: Anti-proliferative SRB assay, PC3; format: cell-based; conditions: PC3 cells, 72 h exposure
Protocol: (§1) The anti-proliferative activity of compounds was evaluated by sulforhodamin B (SRB) assay. After being cultured for 10 h, cells in 96-well plates were subjected to 72 h-exposure to serially diluted compound solutions. Cells were washed with PBS and fixed with trichloroacetic acid (10%, W/V) at 4°C for 1 h. Then, cells were successively washed with PBS, stained for 0.5 h with SRB (0.4%, dissolved in 1% acetic acid), and washed by 1% acetic acid for 5 times. Protein-bound dye was extracted with unbuffered Tris base (10 mmol). After calculating the percent inhibition from absorbance, measured at 515 nm with a multiscan spectrum (Thermo Electron Co., Vantaa, Finland), the curves were fitted in Graphpad Prism 5 to give GI50 values.

PI3Kα = PI3Kα (Homo sapiens, UniProt P42336); assay: PI3Kα enzymatic assay (Kinase-Glo Luminescent Kinase assay); format: biochemical
Sequence of PI3Kα (P42336 whole entry): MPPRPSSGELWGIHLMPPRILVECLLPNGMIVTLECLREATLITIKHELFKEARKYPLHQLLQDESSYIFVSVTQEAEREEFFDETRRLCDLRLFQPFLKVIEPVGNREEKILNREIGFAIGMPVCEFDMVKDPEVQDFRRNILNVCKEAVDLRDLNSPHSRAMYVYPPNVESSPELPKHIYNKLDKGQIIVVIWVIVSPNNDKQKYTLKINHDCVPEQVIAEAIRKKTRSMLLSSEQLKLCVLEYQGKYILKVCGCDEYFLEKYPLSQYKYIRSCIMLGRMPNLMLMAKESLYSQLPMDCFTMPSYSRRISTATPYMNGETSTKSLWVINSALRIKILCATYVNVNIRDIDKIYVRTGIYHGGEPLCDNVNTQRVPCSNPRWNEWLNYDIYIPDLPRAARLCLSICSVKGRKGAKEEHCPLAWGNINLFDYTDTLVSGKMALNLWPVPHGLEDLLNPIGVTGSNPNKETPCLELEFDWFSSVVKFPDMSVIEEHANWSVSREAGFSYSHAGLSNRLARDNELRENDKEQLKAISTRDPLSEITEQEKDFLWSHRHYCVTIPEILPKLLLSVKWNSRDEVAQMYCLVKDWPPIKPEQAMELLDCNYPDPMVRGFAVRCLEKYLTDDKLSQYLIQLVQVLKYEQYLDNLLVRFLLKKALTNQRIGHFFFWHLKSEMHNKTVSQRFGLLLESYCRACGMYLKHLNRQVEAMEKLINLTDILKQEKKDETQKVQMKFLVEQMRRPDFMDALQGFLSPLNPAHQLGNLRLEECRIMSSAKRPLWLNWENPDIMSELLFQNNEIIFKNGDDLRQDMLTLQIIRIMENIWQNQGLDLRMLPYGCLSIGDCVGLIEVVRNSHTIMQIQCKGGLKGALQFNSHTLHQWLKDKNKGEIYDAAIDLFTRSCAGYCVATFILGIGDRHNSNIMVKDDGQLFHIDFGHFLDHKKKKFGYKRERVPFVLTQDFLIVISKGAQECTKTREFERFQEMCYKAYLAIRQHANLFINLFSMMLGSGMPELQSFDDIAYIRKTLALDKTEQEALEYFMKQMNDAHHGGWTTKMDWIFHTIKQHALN
Sequence of PI3Kα (P27986 whole entry partner): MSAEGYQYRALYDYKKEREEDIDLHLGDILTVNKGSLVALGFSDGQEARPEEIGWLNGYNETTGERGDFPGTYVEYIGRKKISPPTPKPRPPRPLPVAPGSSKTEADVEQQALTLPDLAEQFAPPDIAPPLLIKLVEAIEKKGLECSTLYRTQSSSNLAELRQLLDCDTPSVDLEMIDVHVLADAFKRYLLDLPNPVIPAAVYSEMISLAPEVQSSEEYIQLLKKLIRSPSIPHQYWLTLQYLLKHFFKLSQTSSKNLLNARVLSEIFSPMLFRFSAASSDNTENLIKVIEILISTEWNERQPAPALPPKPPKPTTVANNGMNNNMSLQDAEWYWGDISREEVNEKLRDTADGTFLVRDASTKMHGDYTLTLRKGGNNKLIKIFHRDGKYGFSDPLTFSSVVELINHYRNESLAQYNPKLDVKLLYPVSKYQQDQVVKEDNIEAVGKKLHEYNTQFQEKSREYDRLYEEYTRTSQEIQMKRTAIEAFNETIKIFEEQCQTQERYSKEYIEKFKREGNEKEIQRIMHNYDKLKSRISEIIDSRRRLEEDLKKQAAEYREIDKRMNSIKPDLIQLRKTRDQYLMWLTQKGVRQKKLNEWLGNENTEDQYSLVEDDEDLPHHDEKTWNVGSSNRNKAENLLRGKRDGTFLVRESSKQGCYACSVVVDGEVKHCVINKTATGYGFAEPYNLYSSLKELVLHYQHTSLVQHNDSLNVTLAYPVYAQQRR
Protocol: (§2) Kinase-Glo Luminescent Kinase assay (Promega) was performed to determine the PI3Kα inhibitory activity, while ADP-Glo Luminescent assay (Promega) was performed to identify the inhibitory activity against PI3Kβ, γ, or δ. The kinase buffer was composed of HEPES (50 mM, pH 7.5), MgCl2 (3 mM), EGTA (1 mM), NaCl (100 mM), CHAPS (0.03%) and DTT (2 mM). The serially diluted compound solutions (2.5 mL) were successively added to a 384-well plate. Afterwards, the solution of kinase (2.5 mL) in the kinase buffer and the solution of substrate (5 mL) in the kinase buffer containing PIP2 and ATP were added to each well of the assay plate for starting the reaction. Kinase buffer was added instead to the control well without enzyme. […] After being incubated at room temperature for 1 h, Kinase-Glo reagent (10 mL) was added to each well of the PI3Kα assay plate to quench the reaction. […] The mixture was treated briefly with centrifuge, shaken slowly, and equilibrated for 40 min. Kinase Detection reagent (10 mL) was added to each well. Before reading on a plate reader for luminescence, the resultant mixture was incubated at room temperature for 1 h. After calculating the percent inhibition from the RLU values, the curves were fitted in Graphpad Prism 5 to give IC50 values.

[2] = tested on: colorectal cancer HCT116 cell line; assay: Anti-proliferative SRB assay, HCT116; format: cell-based; conditions: 72 h exposure; for GI50: Homo sapiens, HCT-116, HCT116 cells; for GI50 HCT116: HCT116 cells
Protocol: as §1

PI3Kγ = PI3Kγ (Homo sapiens, UniProt P48736); assay: PI3Kγ enzymatic assay (ADP-Glo Luminescent assay); format: biochemical
Sequence of PI3Kγ (P48736 whole entry): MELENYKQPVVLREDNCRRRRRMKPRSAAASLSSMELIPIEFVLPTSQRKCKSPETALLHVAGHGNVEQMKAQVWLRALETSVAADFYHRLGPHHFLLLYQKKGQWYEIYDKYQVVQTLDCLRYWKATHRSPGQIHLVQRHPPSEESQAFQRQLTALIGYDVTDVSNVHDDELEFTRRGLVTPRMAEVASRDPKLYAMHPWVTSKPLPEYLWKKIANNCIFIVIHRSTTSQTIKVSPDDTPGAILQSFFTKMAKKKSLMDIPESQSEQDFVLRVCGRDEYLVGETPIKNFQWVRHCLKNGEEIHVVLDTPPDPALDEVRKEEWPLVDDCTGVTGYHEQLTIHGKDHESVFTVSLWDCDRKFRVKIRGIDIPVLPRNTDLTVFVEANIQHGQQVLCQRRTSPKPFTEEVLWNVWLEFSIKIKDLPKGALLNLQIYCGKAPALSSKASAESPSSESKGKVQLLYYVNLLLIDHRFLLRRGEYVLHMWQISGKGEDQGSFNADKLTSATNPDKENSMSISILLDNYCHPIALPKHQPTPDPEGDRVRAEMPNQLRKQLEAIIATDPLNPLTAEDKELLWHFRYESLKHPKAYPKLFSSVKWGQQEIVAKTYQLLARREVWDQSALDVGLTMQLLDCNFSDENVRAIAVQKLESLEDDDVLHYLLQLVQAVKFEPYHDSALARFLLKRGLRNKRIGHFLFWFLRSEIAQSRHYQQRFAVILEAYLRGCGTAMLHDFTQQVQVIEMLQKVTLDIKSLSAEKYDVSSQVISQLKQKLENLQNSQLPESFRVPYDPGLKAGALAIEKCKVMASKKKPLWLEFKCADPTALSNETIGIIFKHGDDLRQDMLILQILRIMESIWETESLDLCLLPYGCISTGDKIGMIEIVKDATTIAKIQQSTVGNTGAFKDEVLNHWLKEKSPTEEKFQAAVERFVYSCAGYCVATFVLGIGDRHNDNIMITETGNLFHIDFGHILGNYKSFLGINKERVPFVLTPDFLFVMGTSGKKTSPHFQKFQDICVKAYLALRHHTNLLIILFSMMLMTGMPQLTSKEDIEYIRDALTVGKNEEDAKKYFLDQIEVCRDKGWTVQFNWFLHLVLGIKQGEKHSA
Protocol: Kinase-Glo Luminescent Kinase assay (Promega) was performed to determine the PI3Kα inhibitory activity, while ADP-Glo Luminescent assay (Promega) was performed to identify the inhibitory activity against PI3Kβ, γ, or δ. The kinase buffer was composed of HEPES (50 mM, pH 7.5), MgCl2 (3 mM), EGTA (1 mM), NaCl (100 mM), CHAPS (0.03%) and DTT (2 mM). The serially diluted compound solutions […] were successively added to a 384-well plate. Afterwards, the solution of kinase […] in the kinase buffer and the solution of substrate (5 mL) in the kinase buffer containing PIP2 and ATP were added to each well of the assay plate for starting the reaction. Kinase buffer was added instead to the control well without enzyme. The final concentrations of PI3Kα, PI3Kβ, PI3Kγ, PI3Kδ, PIP2, and ATP in corresponding kinase reaction mixture were 1.65 nM, 4.8 nM, 7.6 nM, 5.7 nM, […], respectively. After being incubated at room temperature for 1 h, Kinase-Glo reagent […] was added to each well of the PI3Kα assay plate to quench the reaction. Subsequently, the mixture needs to be mixed briefly with centrifuge and shaken slowly for 15 min before being read on a plate reader for luminescence. As for PI3Kβ, γ, or δ, reaction mixture (5 mL) was transferred to a new 384-plate and ADP-Glo reagent (5 mL) was added for stopping the reaction. The mixture was treated briefly with centrifuge, shaken slowly, and equilibrated for 40 min. Kinase Detection reagent […] was added to each well. Before reading on a plate reader for luminescence, the resultant mixture was incubated at room temperature for 1 h. After calculating the percent inhibition from the RLU values, the curves were fitted in Graphpad Prism 5 to give IC50 values.

[3] = molecular target: mTOR (1362-end, Millipore) (Homo sapiens, UniProt P42345); assay: mTOR enzymatic assay (Lance Ultra assay); format: biochemical
Protocol: The kinase buffer was composed of HEPES (50 mM, pH 7.5), MgCl2 (10 mM), EGTA (1 mM), MnCl2 (3 mM), Tween-20 (0.01%) and DTT (2 mM). The solution of substrate in the kinase buffer contained ULight-4E-BP1 peptide (Thr37/46, PE) and ATP. […] After being incubated at room temperature for 1 h, kinase detection buffer (10 mL) containing EDTA and Eu-anti-phospho-4E-BP1 antibody (Thr37/46, PE) was added to each well of the assay plate. Before reading on a plate reader, the mixture needs to be mixed briefly with centrifuge and then allowed to equilibrate for 1 h. After calculating the percent inhibition from Lance signal, the curves were fitted in Graphpad Prism 5 to give IC50 values.

PI3Kδ = PI3Kδ (Homo sapiens, UniProt O00329); assay: PI3Kδ enzymatic assay (ADP-Glo Luminescent assay); format: biochemical
Sequence of PI3Kδ (O00329 whole entry): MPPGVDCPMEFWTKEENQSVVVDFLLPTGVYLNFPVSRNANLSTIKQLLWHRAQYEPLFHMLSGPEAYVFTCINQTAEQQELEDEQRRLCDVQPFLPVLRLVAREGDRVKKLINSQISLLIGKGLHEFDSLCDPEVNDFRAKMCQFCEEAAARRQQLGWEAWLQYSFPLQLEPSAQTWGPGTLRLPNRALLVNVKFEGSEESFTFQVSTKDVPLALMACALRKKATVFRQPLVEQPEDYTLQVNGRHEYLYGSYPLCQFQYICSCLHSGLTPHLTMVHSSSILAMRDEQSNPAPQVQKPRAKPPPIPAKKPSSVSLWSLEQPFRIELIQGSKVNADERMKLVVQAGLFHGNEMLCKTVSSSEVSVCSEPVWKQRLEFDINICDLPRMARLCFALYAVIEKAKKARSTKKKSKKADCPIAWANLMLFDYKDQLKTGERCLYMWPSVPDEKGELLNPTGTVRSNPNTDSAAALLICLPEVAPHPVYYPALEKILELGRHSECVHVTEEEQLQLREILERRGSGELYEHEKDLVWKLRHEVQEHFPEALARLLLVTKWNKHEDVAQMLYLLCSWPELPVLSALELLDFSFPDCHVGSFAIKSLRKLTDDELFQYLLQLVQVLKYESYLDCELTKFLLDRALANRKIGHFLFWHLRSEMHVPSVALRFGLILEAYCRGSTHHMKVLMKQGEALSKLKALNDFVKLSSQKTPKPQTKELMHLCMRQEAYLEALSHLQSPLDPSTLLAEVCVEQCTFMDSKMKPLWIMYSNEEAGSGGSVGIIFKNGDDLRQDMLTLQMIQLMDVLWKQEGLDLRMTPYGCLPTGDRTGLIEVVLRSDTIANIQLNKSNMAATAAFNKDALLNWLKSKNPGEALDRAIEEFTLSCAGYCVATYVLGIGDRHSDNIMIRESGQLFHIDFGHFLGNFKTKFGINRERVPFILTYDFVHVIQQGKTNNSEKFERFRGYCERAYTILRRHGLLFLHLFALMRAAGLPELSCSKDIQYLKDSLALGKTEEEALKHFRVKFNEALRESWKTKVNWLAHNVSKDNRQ
Sequence of PI3Kδ (P27986 whole entry partner): as the sequence (P27986 whole entry partner) above
Protocol: as §2

PI3Kβ = PI3Kβ (Homo sapiens, UniProt P42338); assay: PI3Kβ enzymatic assay (ADP-Glo Luminescent assay); format: biochemical
Sequence of PI3Kβ (P42338 whole entry): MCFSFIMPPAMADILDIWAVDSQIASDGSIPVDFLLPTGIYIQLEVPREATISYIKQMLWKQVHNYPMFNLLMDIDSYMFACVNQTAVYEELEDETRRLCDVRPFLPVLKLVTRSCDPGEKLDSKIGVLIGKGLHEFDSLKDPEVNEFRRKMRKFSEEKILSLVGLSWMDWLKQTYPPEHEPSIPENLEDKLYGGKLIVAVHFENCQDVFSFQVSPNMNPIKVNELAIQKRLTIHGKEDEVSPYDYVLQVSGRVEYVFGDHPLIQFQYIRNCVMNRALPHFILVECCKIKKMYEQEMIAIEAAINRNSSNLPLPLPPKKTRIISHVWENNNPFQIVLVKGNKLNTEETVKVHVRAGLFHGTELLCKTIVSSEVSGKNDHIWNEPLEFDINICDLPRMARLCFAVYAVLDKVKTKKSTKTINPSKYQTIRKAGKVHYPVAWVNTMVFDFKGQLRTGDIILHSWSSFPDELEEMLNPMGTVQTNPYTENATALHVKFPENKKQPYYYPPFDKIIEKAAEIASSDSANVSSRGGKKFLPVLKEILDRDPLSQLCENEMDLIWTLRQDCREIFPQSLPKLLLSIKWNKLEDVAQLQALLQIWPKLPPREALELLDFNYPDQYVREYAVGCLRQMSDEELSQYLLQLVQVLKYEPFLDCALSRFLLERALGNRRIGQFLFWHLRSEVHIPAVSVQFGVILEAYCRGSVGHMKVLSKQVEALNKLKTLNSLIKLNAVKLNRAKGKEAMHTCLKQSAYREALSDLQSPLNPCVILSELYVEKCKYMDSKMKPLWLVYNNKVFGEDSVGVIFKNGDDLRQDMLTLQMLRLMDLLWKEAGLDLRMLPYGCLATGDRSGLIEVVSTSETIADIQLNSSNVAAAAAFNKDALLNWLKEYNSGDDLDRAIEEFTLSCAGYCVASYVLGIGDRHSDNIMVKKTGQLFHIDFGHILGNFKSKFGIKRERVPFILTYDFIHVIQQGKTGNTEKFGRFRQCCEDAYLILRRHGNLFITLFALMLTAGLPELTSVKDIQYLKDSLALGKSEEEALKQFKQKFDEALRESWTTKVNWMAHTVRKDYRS
Sequence of PI3Kβ (P27986 whole entry partner): as the sequence (P27986 whole entry partner) above
Protocol: as §2

| GI50 ([1]; Homo sapiens, PC-3, 72 h) | IC50 (PI3Kα) | GI50 [2] | IC50 (PI3Kγ) | IC50 [3] | GI50 [1] | IC50 (PI3Kδ) | IC50 (PI3Kβ) | GI50 HCT116 [2] | SMILES |
| --- | --- | --- | --- | --- | --- | --- | --- | --- | --- |
| 1870 nM | 1.03 nM | 1560 nM |  |  |  |  |  |  | COc1ncc(-c2ccc3nccc(/C=C/C(=O)NC4CC4)c3c2)cc1NS(=O)(=O)c1ccc(F)cc1F [8d, (E)-N-cyclopropyl-3-(6-(5-((2,4-difluorophenyl)sulfonamido)-6-methoxypyridin-3-yl)quinolin-4-yl)acrylamide] |
| 220 nM |  | 180 nM | 0.44 nM |  |  |  |  |  | COc1ncc(-c2ccc3nccc(-c4ccnnc4)c3c2)cc1NS(=O)(=O)c1ccc(F)cc1F [GSK2126458, reference compound] |
| < 500 nM | 0.67 nM | 960 nM | 0.5 nM | 1.2 nM | 450 nM | 1.3 nM | 1.2 nM | sub-micromolar | COc1ncc(-c2ccc3nccc(/C=C/C(=O)N(C)CCO)c3c2)cc1NS(=O)(=O)c1ccc(F)cc1F [8c, (E)-3-(6-(5-((2,4-difluorophenyl)sulfonamido)-6-methoxypyridin-3-yl)quinolin-4-yl)-N-(2-hydroxyethyl)-N-methylacrylamide] |
| 1900 nM | 0.63 nM | 700 nM |  |  |  |  |  |  | COc1ncc(-c2ccc3nccc(/C=C/C(=O)NC(C)(C)C)c3c2)cc1NS(=O)(=O)c1ccc(F)cc1F [8a, (E)-N-(tert-butyl)-3-(6-(5-((2,4-difluorophenyl)sulfonamido)-6-methoxypyridin-3-yl)quinolin-4-yl)acrylamide] |
| < 500 nM | 0.53 nM | 510 nM |  |  | 360 nM |  |  | sub-micromolar | COc1ncc(-c2ccc3nccc(/C=C/C(=O)N4CCOCC4)c3c2)cc1NS(=O)(=O)c1ccc(F)cc1F [8h, (E)-2,4-difluoro-N-(2-methoxy-5-(4-(3-morpholino-3-oxoprop-1-en-1-yl)quinolin-6-yl)pyridin-3-yl)benzenesulfonamide] |
| 4830 nM | 1.8 nM | 1520 nM |  |  |  |  |  |  | COc1ncc(-c2ccc3nccc(/C=C/C(=O)Nc4ccccc4)c3c2)cc1NS(=O)(=O)c1ccc(F)cc1F [8o, (E)-3-(6-(5-((2,4-difluorophenyl)sulfonamido)-6-methoxypyridin-3-yl)quinolin-4-yl)-N-phenylacrylamide] |
| 840 nM | 2.03 nM | 1130 nM |  |  |  |  |  |  | COCCNC(=O)/C=C/c1ccnc2ccc(-c3cnc(OC)c(NS(=O)(=O)c4ccc(F)cc4F)c3)cc12 [8b, (E)-3-(6-(5-((2,4-difluorophenyl)sulfonamido)-6-methoxypyridin-3-yl)quinolin-4-yl)-N-(2-methoxyethyl)acrylamide] |
| 1430 nM | 1.1 nM | 1790 nM |  |  |  |  |  |  | COc1ncc(-c2ccc3nccc(/C=C/C(=O)NCCN4CCOCC4)c3c2)cc1NS(=O)(=O)c1ccc(F)cc1F [8n, (E)-3-(6-(5-((2,4-difluorophenyl)sulfonamido)-6-methoxypyridin-3-yl)quinolin-4-yl)-N-(2-morpholinoethyl)acrylamide] |
| < 500 nM | 0.79 nM | 320 nM |  |  | 280 nM |  |  | sub-micromolar | COc1ncc(-c2ccc3nccc(/C=C/C(=O)N4CCC(O)CC4)c3c2)cc1NS(=O)(=O)c1ccc(F)cc1F [8k, (E)-2,4-difluoro-N-(5-(4-(3-(4-hydroxypiperidin-1-yl)-3-oxoprop-1-en-1-yl)quinolin-6-yl)-2-methoxypyridin-3-yl)benzenesulfonamide] |
| 880 nM | 1.9 nM | 970 nM |  |  |  |  |  |  | COc1ncc(-c2ccc3nccc(/C=C/C(=O)N4CCN(C(C)C)CC4)c3c2)cc1NS(=O)(=O)c1ccc(F)cc1F [8j, (E)-2,4-difluoro-N-(5-(4-(3-(4-isopropylpiperazin-1-yl)-3-oxoprop-1-en-1-yl)quinolin-6-yl)-2-methoxypyridin-3-yl)benzenesulfonamide] |
| 950 nM | 0.62 nM | 1460 nM |  |  |  |  |  |  | COc1ncc(-c2ccc3nccc(/C=C/C(=O)N4CCCC4)c3c2)cc1NS(=O)(=O)c1ccc(F)cc1F [8f, (E)-2,4-difluoro-N-(2-methoxy-5-(4-(3-oxo-3-(pyrrolidin-1-yl)prop-1-en-1-yl)quinolin-6-yl)pyridin-3-yl)benzenesulfonamide] |
| 1480 nM | 1.43 nM | 1250 nM |  |  |  |  |  |  | COc1ncc(-c2ccc3nccc(/C=C/C(=O)NC4CCC4)c3c2)cc1NS(=O)(=O)c1ccc(F)cc1F [8e, (E)-N-cyclobutyl-3-(6-(5-((2,4-difluorophenyl)sulfonamido)-6-methoxypyridin-3-yl)quinolin-4-yl)acrylamide] |
| 7160 nM | 14.3 nM | 3670 nM |  |  |  |  |  |  | COc1ncc(-c2ccc3ncccc3c2)cc1NS(=O)(=O)c1ccc(F)cc1F [compound 10, 2,4-Difluoro-N-(2-methoxy-5-(quinolin-6-yl)pyridin-3-yl)benzenesulfonamide] |
| 2560 nM | 0.68 nM | 1290 nM |  |  |  |  |  |  | COc1ncc(-c2ccc3nccc(/C=C/C(=O)N4CCC(CO)CC4)c3c2)cc1NS(=O)(=O)c1ccc(F)cc1F [8m, (E)-2,4-difluoro-N-(5-(4-(3-(4-(hydroxymethyl)piperidin-1-yl)-3-oxoprop-1-en-1-yl)quinolin-6-yl)-2-methoxypyridin-3-yl)benzenesulfonamide] |
| 1310 nM | 0.75 nM | 1560 nM |  |  |  |  |  |  | COc1ncc(-c2ccc3nccc(/C=C/C(=O)N4CCCC(O)C4)c3c2)cc1NS(=O)(=O)c1ccc(F)cc1F (stereo not shown) [8l, (E)-2,4-difluoro-N-(5-(4-(3-(3-hydroxypiperidin-1-yl)-3-oxoprop-1-en-1-yl)quinolin-6-yl)-2-methoxypyridin-3-yl)benzenesulfonamide] |
| 2500 nM | 0.68 nM | 1300 nM |  |  |  |  |  |  | COc1ncc(-c2ccc3nccc(/C=C/C(=O)N4CCCCC4)c3c2)cc1NS(=O)(=O)c1ccc(F)cc1F [8g, (E)-2,4-difluoro-N-(2-methoxy-5-(4-(3-oxo-3-(piperidin-1-yl)prop-1-en-1-yl)quinolin-6-yl)pyridin-3-yl)benzenesulfonamide] |
